Measured values as given in patent publication US8530493B2, “Indolopyridines as Eg5 kinesin modulators” (4SC AG, priority 2006, dated 2013).

What follows are compounds tested on RKO p21 uninduced (proliferating) colon adenocarcinoma cells (assay: Alamar Blue cell viability assay, RKO p21 uninduced (proliferating)). Conditions: Homo sapiens, Table B3, anti-proliferative/cytotoxic activity, 72 hours, read-out: −log EC50 RKO p21 uninduced (proliferating) (converted).
Type: cell-based
Procedure, shortened: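 Viability read by Alamar Blue fluorescence (ex 544, em 590 nm), normalised to untreated wells, after 72 h, 37° C, 5% CO2 compound exposure in triplicate. Cells were uninduced (no Ponasterone A), proliferating RKO colon carcinoma p27 or p21 subclones in DMEM with 10% FCS; values are −log EC50 (mol/l).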

`COc1cc2c3c([nH]c2cc1F)[C@@H](c1cccc(O)c1)N1C(=O)N(CCNCC(C)C)C(=O)[C@]1(C)C3` (racemic) [Example 252, (3aSR,10RS)-7-Fluoro-10-(3-hydroxy-phenyl)-2-(2-isobutylamino-ethyl)-6-methoxy-3a-methyl-3a,4,9,10-tetrahydro-2,9,10-triaza-cyclopenta[b]fluorene-1,3-dione] and `COc1cc2c3c([nH]c2cc1F)[C@@H](c1cccc(O)c1)N1C(=O)N(CCNCC2CC2)C(=O)[C@]1(C)C3` (racemic) [Example 251, (3aSR,10RS)-2-[2-(Cyclopropylmethyl-amino)-ethyl]-7-fluoro-10-(3-hydroxy-phenyl)-6-methoxy-3a-methyl-3a,4,9,10-tetrahydro-2,9,10a-triaza-cyclopenta[b]fluorene-1,3-dione] cannot be ordered by EC50: 39.8 to 251 nM for the first, no more than 39.8 nM for the second.

`CC(C)NCCN1C(=O)N2[C@H](c3cccc(O)c3)c3[nH]c4ccc(OC(F)F)cc4c3C[C@@]2(C)C1=O` (racemic) [Example 268, (3aSR,10RS)-6-(1,1-Difluoro-methoxy)-10-(3-hydroxy-phenyl)-2-(2-isopropylamino-ethyl)-3a-methyl-3a,4,9,10-tetrahydro-2,9,10a-triaza-cyclopenta[b]fluorene-1,3-dione] and `CC(C)CNCCCN1C(=O)N2[C@H](c3cccc(O)c3)c3[nH]c4ccc(OC(F)F)cc4c3C[C@@]2(C)C1=O` (racemic) [Example 199, (3aSR,10RS)-6-(1,1-Difluoro-methoxy)-10-(3-hydroxy-phenyl)-2-(3-isobutylamino-propyl)-3a-methyl-3a,4,9,10-tetrahydro-2,9,10a-triaza-cyclopenta[b]fluorene-1,3-dione] cannot be ordered by EC50: no more than 39.8 nM for the first, 39.8 to 251 nM for the second.

`CCOc1ccc2[nH]c3c(c2c1)C[C@@]1(C)C(=O)N(CCCN(CC)CCO)C(=O)N1[C@@H]3c1cccc(O)c1` (racemic) [Example 194, (3aSR,10RS)-6-Ethoxy-2-{3-[ethyl-(2-hydroxy-ethyl)-amino]-propyl}-10-(3-hydroxy-phenyl)-3a-methyl-3a,4,9,10-tetrahydro-2,9,10a-triaza-cyclopenta[b]fluorene-1,3-dione] and `CCN(CCCN1C(=O)N2[C@H](c3cccc(O)c3)c3[nH]c4ccc(OC)cc4c3C[C@@]2(C)C1=O)CCOC` [Example 544, (3aS,10R)-2-{3-[Ethyl-(2-methoxy-ethyl)-amino]-propyl}-10-(3-hydroxy-phenyl)-6-methoxy-3a-methyl-3a,4,9,10-tetrahydro-2,9,10a-triaza-cyclopenta[b]fluorene-1,3-dione] cannot be ordered by EC50: 39.8 to 251 nM for the first, no more than 39.8 nM for the second.

`CCOc1ccc2[nH]c3c(c2c1)C[C@@]1(C)C(=O)N(CCN(C)CC)C(=O)N1[C@@H]3c1cccc(O)c1` (racemic) [Example 158, (3aSR,10RS)-6-Ethoxy-2-[2-(ethyl-methyl-amino)-ethyl]-10-(3-hydroxy-phenyl)-3a-methyl-3a,4,9,10-tetrahydro-2,9,10a-triaza-cyclopenta[b]fluorene-1,3-dione] and `CCOc1ccc2[nH]c3c(c2c1)C[C@@]1(C)C(=O)N(CCN(C)C(C)C)C(=O)N1[C@@H]3c1cccc(O)c1` (racemic) [Example 163, (3aSR,10RS)-6-Ethoxy-10-(3-hydroxy-phenyl)-2-[2-(isopropyl-methyl-amino)-ethyl]-3a-methyl-3a,4,9,10-tetrahydro-2,9,10a-triaza-cyclopenta[b]fluorene-1,3-dione] cannot be ordered by EC50: no more than 39.8 nM for the first, no more than 39.8 nM for the second.

`CNCCN1C(=O)N2[C@H](c3cccc(O)c3)c3[nH]c4ccc(OC)c(F)c4c3C[C@@]2(C)C1=O` (racemic) [Example 406, (3aSR,10RS)-5-Fluoro-10-(3-hydroxy-phenyl)-6-methoxy-3a-methyl-2-(2-methylamino-ethyl)-3a,4,9,10-tetrahydro-2,9,10a-triaza-cyclopenta[b]fluorene-1,3-dione] and `CNCCN1C(=O)N2[C@H](c3cccc(O)c3)c3[nH]c4cc(F)c(Cl)cc4c3C[C@@]2(C)C1=O` (racemic) [Example 337, (3aSR,10RS)-6-Chloro-7-fluoro-10-(3-hydroxy-phenyl)-3a-methyl-2-(2-methylamino-ethyl)-3a,4,9,10-tetrahydro-2,9,10a-triaza-cyclopenta[b]fluorene-1,3-dione] cannot be ordered by EC50: 39.8 to 251 nM for the first, no more than 39.8 nM for the second.

`C[C@@]12Cc3c([nH]c4ccc(Br)cc34)[C@@H](c3cccc(O)c3)N1C(=O)N(CCN1CC=CCC1)C2=O` (racemic) [Example 395, (3aSR,10RS)-6-Bromo-2-[2-(3,6-dihydro-2H-pyridin-1-yl)-ethyl]-10-(3-hydroxy-phenyl)-3a-methyl-3a,4,9,10-tetrahydro-2,9,10a-triaza-cyclopenta[b]fluorene-1,3-dione] and `C[C@@]12Cc3c([nH]c4cc(F)c(Cl)cc34)[C@@H](c3cccc(O)c3)N1C(=O)N(CCCN1CC=CC1)C2=O` (racemic) [Example 477, (3aSR,10RS)-6-Chloro-2-[3-(2,5-dihydro-pyrrol-1-yl)-propyl]-7-fluoro-10-(3-hydroxy-phenyl)-3a-methyl-3a,4,9,10-tetrahydro-2,9,10a-triaza-cyclopenta[b]fluorene-1,3-dione] fall in the same range of EC50: 39.8 to 251 nM for the first, 39.8 to 251 nM for the second.

`C[C@@]12Cc3c([nH]c4ccc(OC(F)F)cc34)[C@@H](c3cccc(O)c3)N1C(=O)N(CCN1CCCCC1)C2=O` (racemic) [Example 280, (3aSR,10RS)-6-(1,1-Difluoro-methoxy)-10-(3-hydroxy-phenyl)-3a-methyl-2-(2-piperidin-1-yl-ethyl)-3a,4,9,10-tetrahydro-2,9,10a-triaza-cyclopenta[b]fluorene-1,3-dione] and `CN1CCN(CCCN2C(=O)N3[C@H](c4cccc(O)c4)c4[nH]c5ccc(OC(F)F)cc5c4C[C@@]3(C)C2=O)CC1` (racemic) [Example 240, (3aSR,10RS)-6-(1,1-Difluoro-methoxy)-10-(3-hydroyx-phenyl)-3a-methyl-2-[3-(4-methyl-piperazin-1-yl)-propyl]-3a,4,9,10-tetrahydro-2,9,10a-triaza-cyclopenta[b]fluorene-1,3-dione] fall in the same range of EC50: 39.8 to 251 nM for the first, 39.8 to 251 nM for the second.

`C[C@@]12Cc3c([nH]c4cc(F)c(Cl)cc34)[C@@H](c3cccc(O)c3)N1C(=O)N(CCN1CCCCCC1)C2=O` (racemic) [Example 361, (3aSR,10RS)-2-(2-Azepan-1-yl-ethyl)-6-chloro-7-fluoro-10-(3-hydroxy-phenyl)-3a-methyl-3a,4,9,10-tetrahydro-2,9,10a-triaza-cyclopenta[b]fluorene-1,3-dione] and `COc1cc2c3c([nH]c2cc1F)[C@@H](c1cccc(O)c1)N1C(=O)N(CCN2CCCC2)C(=O)[C@]1(C)C3` (racemic) [Example 261, (3aSR,10RS)-7-Fluoro-10-(3-hydroxy-phenyl)-6-methoxy-3a-methyl-2-(2-pyrrolidin-1-yl-ethyl)-3a,4,9,10-tetrahydro-2,9,10a-triaza-cyclopenta[b]fluorene-1,3-dione] fall in the same range of EC50: 39.8 to 251 nM for the first, 39.8 to 251 nM for the second.

`CCN(C)CCCN1C(=O)N2[C@H](c3cccc(O)c3)c3[nH]c4cc(F)c(Cl)cc4c3C[C@@]2(C)C1=O` (racemic) [Example 467, (3aSR,10RS)-6-Chloro-2-[3-(ethyl-methyl-amino)-propyl]-7-fluoro-10-(3-hydroxy-phenyl)-3a-methyl-3a,4,9,10-tetrahydro-2,9,10a-triaza-cyclopenta[b]fluorene-1,3-dione] and `CCN(CC)CCCN1C(=O)N2[C@H](c3cccc(O)c3)c3[nH]c4cc(F)c(OC)cc4c3C[C@@]2(C)C1=O` (racemic) [Example 313, (3aSR,10RS)-2-(3-Diethylamino-propyl)-7-fluoro-10-(3-hydroxy-phenyl)-6-methoxy-3a-methyl-3a,4,9,10-tetrahydro-2,9,10a-triaza-cyclopenta[b]fluorene-1,3-dione] cannot be ordered by EC50: no more than 39.8 nM for the first, 39.8 to 251 nM for the second.

`CCOc1ccc2[nH]c3c(c2c1)C[C@@]1(C)C(=O)N(CCN2CCC(C)CC2)C(=O)N1[C@@H]3c1cccc(O)c1` (racemic) [Example 302, (3aSR,10RS)-6-Ethoxy-10-(3-hydroxy-phenyl)-3a-methyl-2-[2-(4-methyl-piperidin-1-yl)-ethyl]-3a,4,9,10-tetrahydro-2,9,10a-triaza-cyclopenta[b]fluorene-1,3-dione] and `C=CCN(C)CCCN1C(=O)N2[C@H](c3cccc(O)c3)c3[nH]c4ccc(OC(F)F)cc4c3C[C@@]2(C)C1=O` (racemic) [Example 184, (3aSR,10RS)-2-[3-(Allyl-methyl-amino)-propyl]-6-(1,1-difluoro-methoxy)-10-(3-hydroxy-phenyl)-3a-methyl-3a,4,9,10-tetrahydro-2,9,10a-triaza-cyclopenta[b]fluorene-1,3-dione] fall in the same range of EC50: 39.8 to 251 nM for the first, 39.8 to 251 nM for the second.

`CCN(CCO)CCCN1C(=O)N2[C@H](c3cccc(O)c3)c3[nH]c4cc(F)c(OC)cc4c3C[C@@]2(C)C1=O` (racemic) [Example 315, (3aSR,10RS)-2-{3-[Ethyl-(2-hydroxy-ethyl)-amino]-propyl}-7-fluoro-10-(3-hydroxy-phenyl)-6-methoxy-3a-methyl-3a,4,9,10-tetrahydro-2,9,10a-triaza-cyclopenta[b]fluorene-1,3-dione] and `C=CCN(C)CCCN1C(=O)N2[C@H](c3cccc(O)c3)c3[nH]c4ccc(Cl)cc4c3C[C@@]2(C)C1=O` (racemic) [Example 169, (3aSR,10RS)-2-[3-(Allyl-methyl-amino)-propyl]-6-chloro-10-(3-hydroxy-phenyl)-3a-methyl-3a,4,9,10-tetrahydro-2,9,10a-triaza-cyclopenta[b]fluorene-1,3-dione] cannot be ordered by EC50: 39.8 to 251 nM for the first, no more than 39.8 nM for the second.

`C[C@@]12Cc3c([nH]c4cc(F)c(Cl)cc34)[C@@H](c3cccc(O)c3)N1C(=O)N(CCCNC1CCC1)C2=O` (racemic) [Example 463, (3aSR,10RS)-6-Chloro-2-(3-cyclobutylamino-propyl)-7-fluoro-10-(3-hydroxy-phenyl)-3a-methyl-3a,4,9,10-tetrahydro-2,9,10a-triaza-cyclopenta[b]fluorene-1,3-dione] gave an EC50 of 39.8 to 251 nM.
